Experimental data published in US20200360520A1, “USE OF RIFAMYCIN-QUINOLIZIDONE COUPLING MOLECULE” (priority 2019, published 2020).
Values after ≈ are worked out from the molar mass of the structure shown. Where two headings read alike, the source gives them in different places.

Experiments:
Type in all cases: cell-based
Mycobacterium kansasii [1] = assay: MIC by micro broth dilution method (resazurin microtiter assay); conditions: Mycobacterium kansasii, Mycobacterium kansasii, read-out: Minimum Inhibitory Concentration (MIC)
Mycobacterium avium [2] = assay: as above; conditions: read-out: Minimum Inhibitory Concentration (MIC)
Mycobacterium avium [3] = assay: MBC test (plating on agar, CFU count); conditions: Mycobacterium avium, read-out: Minimum Bactericidal Concentration (MBC)
Mycobacterium abscessus [4] = assay: MBC test (plating on agar, CFU count); conditions: for Minimum Bactericidal Concentration (MBC): MH Culture Medium; for MBC: Mycobacteroides abscessus, 7H9 Culture Medium, read-out: Minimum Bactericidal Concentration (MBC)
Mycobacterium abscessus [5] = assay: MIC by micro broth dilution method (resazurin microtiter assay); conditions: Mycobacteroides abscessus, read-out: Minimum Inhibitory Concentration (MIC)
Mycobacterium kansasii [6] = assay: MBC test (plating on agar, CFU count); conditions: Mycobacterium kansasii, Mycobacterium kansasii, read-out: Minimum Bactericidal Concentration (MBC)
[7] = 7H9 Broth, Mycobacterium avium Smooth
[8] = MH Broth, Mycobacterium avium Smooth
[9] = 7H9 Culture Medium, Mycobacterium avium Smooth
[10] = MH Culture Medium, Mycobacterium avium Smooth

Row | MIC (Mycobacterium avium [2]; 7H9 Broth, Mycobacterium avium Rough) [µg/mL] | MIC (Mycobacterium avium [2]; MH Broth, Mycobacterium avium Rough) [µg/mL] | Structure (SMILES) | MIC (Mycobacterium kansasii [1]; 7H9 Broth) [µg/mL] | MIC (Mycobacterium kansasii [1]; MH Broth) [µg/mL] | MIC (Mycobacterium avium [2]; [7]) [µg/mL] | MIC (Mycobacterium avium [2]; [8]) [µg/mL] | MBC (Mycobacterium avium [3]; 7H9 Culture Medium, Mycobacterium avium Rough) [µg/mL] | MBC (Mycobacterium avium [3]; [9]) [µg/mL] | MBC (Mycobacterium avium [3]; MH Culture Medium, Mycobacterium avium Rough) [µg/mL] | MBC (Mycobacterium avium [3]; [10]) [µg/mL] | Minimum Bactericidal Concentration (MBC) (Mycobacterium abscessus [4]) [µg/mL] | MBC (Mycobacterium abscessus [4]) [µg/mL] | MIC (Mycobacterium abscessus [5]; 7H9 Broth) [µg/mL] | MIC (Mycobacterium abscessus [5]; MH Broth) [µg/mL] | MBC (Mycobacterium kansasii [6]; 7H9 Culture Medium) [µg/mL] | MBC (Mycobacterium kansasii [6]; MH Culture Medium) [µg/mL]
1 | > 64 | 2 (≈ 3.42 µM) | NCC[C@H](O)C(=O)N[C@@H]1C[C@H](N)[C@@H](O[C@H]2O[C@H](CN)[C@@H](O)[C@H](O)[C@H]2O)[C@H](O)[C@H]1O[C@H]1O[C@H](CO)[C@@H](O)[C@H](N)[C@H]1O [Amikacin, amikacin] | 16 (≈ 27.3 µM) | 1 (≈ 1.71 µM) | 2 (≈ 3.42 µM) | 2 (≈ 3.42 µM) | > 64 | > 64 | > 64 | > 64 | >64 | > 64 | 32 (≈ 54.6 µM) | 16 (≈ 27.3 µM) | 64 (≈ 109 µM) | > 64
2 |  |  | O=C(O)c1cn(C2CC2)c2cc(N3CCNCC3)c(F)cc2c1=O [Ciprofloxacin, ciprofloxacin] | > 64 | > 64 | > 64 | > 64 |  | > 64 |  | > 64 | >64 | > 64 | 16 (≈ 48.3 µM) | > 64 | > 64 | > 64
